Measured values taken from US10703748B2, “Diazanaphthalen-3-yl carboxamides and preparation and use thereof” (Samumed, LLC, priority 2017, dated 2020).
pEC50: −log10 of the molar value.

Key:
[1] = system: SW480 colon carcinoma cells; experiment: Cell viability assay (CellTiter-Glo); conditions: Homo sapiens; for pEC50: SW480, 96 h; for inhibition at 10 µM: SW480, read-out: percent inhibition at 10 μM
[2] = system: α-smooth muscle actin (aSMA) positive LL29 cells; experiment: Inhibition of the fibrotic process: αSMA staining in TGF-β1 treated LL29 fibroblasts from IPF patients; conditions: Homo sapiens, Fibroblast; for pEC50: 96 h; for inhibition at 10 µM: read-out: percentage in parentheses after EC50 >10
GSK3β kinase = GSK3β kinase (Homo sapiens, UniProt P49841); experiment: GSK3β kinase activity (Ser/Thr 09 peptide Z-lyte FRET assay); format: biochemical; conditions: recombinant kinase, 46 μM ATP, one hour at room temperature; read-out: EC50
Procedure: Each compound is dissolved in DMSO as a 10 mM stock and used to prepare compound source plates. Serial dilution (1:3, 11-point dose-response curves from 10 μM to 0.0003 μM) and compound transfer was performed using the ECHO 550 (Labcyte, Sunnyvale, Calif.) into 1536-well black-walled round bottom plates (Corning).
This is a non-radioactive assay using fluorescence resonance energy transfer (FRET) between coumarin and fluorescein to detect kinase activity which is represented as ratio of coumarin emission/fluorescein emission.
The mixture is allowed to incubate with the representative compounds for one hour at room temperature. All reactions were performed in duplicate. Unphosphorylated (“0% Control”) and phosphorylated (“100% control”) forms of Ser/Thr 18 serve as control reactions.
After incubation, diluted Development Buffer is added to the reaction and allowed to further incubate for one hour at room temperature.
Dose-response curves are generated and inhibitory concentration (IC50) values are calculated using non-linear regression curve fit in the Dotmatics' Studies Software (Bishops Stortford, UK).

DYRK1A kinase = DYRK1A kinase (Homo sapiens, UniProt Q13627); experiment: DYRK1A kinase activity (Ser/Thr 18 peptide Z-lyte FRET assay); format: biochemical; conditions: recombinant DYRK1A, 30 μM ATP, one hour at room temperature;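 note: kinase activity read as coumarin/fluorescein emission ratio after development step, with unphosphorylated and phosphorylated peptide forms setting 0% and 100% controls, values from dose-response curves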
IL-6 = IL-6 inhibition in LPS-stimulated human peripheral blood mononuclear cells (HTRF); conditions: Homo sapiens, PBMC; for pEC50: 22 h; for inhibition at 10 µM: read-out: percentage in parentheses after EC50 >10
[3] = system: Wnt-responsive Sp5-Luc reporter in SW480 colon carcinoma cells; experiment: Screening assay for Wnt activity (Sp5-Luc reporter gene assay); conditions: Homo sapiens; for pEC50: SW480; for inhibition at 10 µM: SW480, read-out: percent inhibition at 10 μM

Chain of GSK3β kinase (P49841 whole entry): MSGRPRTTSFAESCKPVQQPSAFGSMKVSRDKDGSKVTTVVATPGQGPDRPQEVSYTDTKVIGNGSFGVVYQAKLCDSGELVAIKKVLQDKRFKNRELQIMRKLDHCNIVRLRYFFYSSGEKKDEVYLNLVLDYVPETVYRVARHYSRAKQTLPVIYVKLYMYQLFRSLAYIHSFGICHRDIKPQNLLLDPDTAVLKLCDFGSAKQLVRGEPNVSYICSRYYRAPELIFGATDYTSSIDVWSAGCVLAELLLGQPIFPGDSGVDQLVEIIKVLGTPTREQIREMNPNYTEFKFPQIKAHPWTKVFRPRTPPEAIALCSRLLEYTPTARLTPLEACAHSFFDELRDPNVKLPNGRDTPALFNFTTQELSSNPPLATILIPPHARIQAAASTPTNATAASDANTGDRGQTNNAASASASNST

Structure (SMILES)	pEC50 [1]	pEC50 [2]	inhibition at 10 µM [2] [%]	pEC50 (GSK3β kinase)	pEC50 (DYRK1A kinase)	pEC50 (IL-6)	inhibition at 10 µM (IL-6) [%]	pEC50 [3]	inhibition at 10 µM [3] [%]	inhibition at 10 µM [1] [%]
CN1CCCN(c2cc(C(=O)Nc3cc4cc(-c5cn(C)nn5)ncc4cn3)ccn2)CC1 [Compound 4006, 2-(4-Methyl-1,4-diazepan-1-yl)-N-(6-(1-methyl-1H-1,2,3-triazol-4-yl)-2,7-naphthyridin-3-yl)isonicotinamide]	5.10	< 5.00	5.2	5.83	7.25	< 5.00	8.9	< 5.00	37.7	
CC(C)Oc1ccc(C(=O)Nc2cc3cc(-c4cnc5n4CCNC5)ncc3cn2)cc1 [Compound 4150, 4-Isopropoxy-N-(6-(5,6,7,8-tetrahydroimidazo[1,2-a]pyrazin-3-yl)-2,7-naphthyridin-3-yl)benzamide]	< 5.00	5.45		5.29	7.28	< 5.00	4.6	5.55		32.7
CC(F)(F)CN1CCC(C(=O)Nc2cc3cc(-c4cnco4)ncc3cn2)CC1 [Compound 4167, 1-(2,2-Difluoropropyl)-N-(6-(oxazol-5-yl)-2,7-naphthyridin-3-yl)piperidine-4-carboxamide]	< 5.00	< 5.00	43	6.90	5.49	< 5.00	4.9	< 5.00	8.9	11.9
Cc1nnc(-c2cc3cc(NC(=O)CN4C5CCC4CC5)ncc3cn2)s1 [Compound 4353, 2-(7-Azabicyclo[2.2.1]heptan-7-yl)-N-(6-(5-methyl-1,3,4-thiadiazol-2-yl)-2,7-naphthyridin-3-yl)acetamide]	< 5.00	< 5.00	26.4	5.61	6.28	< 5.00	8.5	< 5.00	2.1	4.1
Cc1nnc(-c2cc3cc(NC(=O)c4ccnc(N5CCN(C)CC5)c4)ncc3cn2)s1 [Compound 4377, N-(6-(5-Methyl-1,3,4-thiadiazol-2-yl)-2,7-naphthyridin-3-yl)-2-(4-methylpiperazin-1-yl)isonicotinamide]	5.27	5.53		< 5.00	6.60	< 5.00	5.7	< 5.00	28.6	
CN1CCN(c2cc(C(=O)Nc3cc4cc(-c5cncc(N)c5)ncc4cn3)ccn2)CC1 [Compound 4432, N-(6-(5-Aminopyridin-3-yl)-2,7-naphthyridin-3-yl)-2-(4-methylpiperazin-1-yl)isonicotinamide]	5.69	5.76		< 5.00	8.70	< 5.00	1.4	5.70		
Cn1cc(-c2ccc3cnc(NC(=O)[C@H]4CC[C@H](NC(=O)OC(C)(C)C)CC4)cc3n2)cn1 [Compound 4537, tert-Butyl (trans-4-((2-(1-methyl-1H-pyrazol-4-yl)-1,6-naphthyridin-7-yl)carbamoyl)cyclohexyl)carbamate]	< 5.00	5.28		6.27	7.46	< 5.00	3	< 5.00	25.3	4.7
CN1CC(COc2cncc(-c3ccc4cnc(NC(=O)c5ccc(F)cc5)cc4n3)n2)C1 [Compound 4564, 4-fluoro-N-(2-(6-((1-methylazetidin-3-yl)methoxy)pyrazin-2-yl)-1,6-naphthyridin-7-yl)benzamide]	< 5.00	< 5.00	26.8	< 5.00	5.99	< 5.00	0	< 5.00	33.3	21.1
Cn1nnnc1-c1ccc2cnc(NC(=O)C3CCN(CCC(F)(F)F)CC3)nc2c1 [Compound 4574, N-(7-(1-Methyl-1H-tetrazol-5-yl)quinazolin-2-yl)-1-(3,3,3-trifluoropropyl) piperidine-4-carboxamide]	< 5.00	< 5.00	32.8	6.18	5.85	< 5.00	5.7	5.41		20.2
Cc1ncc(-c2ccc3cnc(NC(=O)C(C)N4CCCCC4)nc3c2)n1C (stereo not drawn) [Compound 4576, N-(7-(1,2-Dimethyl-1H-imidazol-5-yl)quinazolin-2-yl)-2-(piperidin-1-yl) propanamide]	< 5.00	< 5.00	38.3	6.46	6.17	< 5.00	0	< 5.00	35.3	22.1
